Data as given in ChEMBL document CHEMBL4004878, “Design, synthesis and structure-bactericidal activity relationships of novel 9-oxime ketolides and reductive epimers of acylides” (2017).
Values after ≈ are worked out from the molar mass of the structure shown.

What was measured:
Format in all cases: functional
Streptococcus pyogenes [1] = assay: Ratio of MBC to MIC for Streptococcus pyogenes 12-207 expressing mef
Moraxella catarrhalis [2] = assay: Bactericidal activity against erythromycin-susceptible Moraxella catarrhalis 11B366 incubated for 20 hrs followed by sub-culturing for 24 hrs in absence of compound
Haemophilus influenzae [3] = assay: Ratio of MBC to MIC for azithromycin susceptible/ampicillin-resistant Haemophilus influenzae 11P307
Staphylococcus aureus [4] = assay: Bacteriostatic activity against methicillin-resistant Staphylococcus aureus PU20 expressing constitutive ermC after 20 hrs by two-fold microbroth dilution method; details: PU20, 20 h
Moraxella catarrhalis [5] = assay: Ratio of MBC to MIC against erythromycin-susceptible Moraxella catarrhalis 11B366
Streptococcus pneumoniae [6] = assay: Bacteriostatic activity against […] Streptococcus pneumoniae ATCC 49619 after 20 to 24 hrs by two-fold microbroth dilution method
Streptococcus pyogenes [7] = assay: Ratio of MBC to MIC for Streptococcus pyogenes 01-968 expressing inducible ermA
Streptococcus pneumoniae [8] = assay: Bactericidal activity against […] Streptococcus pneumoniae ATCC 49619 incubated for 20 to 24 hrs followed by sub-culturing for 24 hrs in absence of compound
Haemophilus influenzae [9] = assay: Bacteriostatic activity against azithromycin-susceptible/ampicillin-resistant Haemophilus influenzae 11P307 after 20 to 24 hrs by two-fold microbroth dilution method
Streptococcus pneumoniae [10] = assay: Ratio of MBC to MIC for […] Streptococcus pneumoniae ATCC 49619
Staphylococcus aureus [11] = assay: Bacteriostatic activity against methicillin-resistant Staphylococcus aureus PU32 expressing inducible ermA after 20 hrs by two-fold microbroth dilution method; details: PU32, 20 h
Moraxella catarrhalis [12] = assay: Bacteriostatic activity against erythromycin-susceptible Moraxella catarrhalis 13L332 after 20 hrs by two-fold microbroth dilution method; details: 13L332, 20 h
Haemophilus influenzae [13] = assay: Bactericidal activity against azithromycin-susceptible Haemophilus influenzae ATCC 49247 incubated for 20 to 24 hrs followed by sub-culturing for 24 hrs in absence of compound
Streptococcus pneumoniae [14] = assay: Bactericidal activity against penicillin-susceptible Streptococcus pneumoniae PU09 incubated for 20 to 24 hrs followed by sub-culturing for 24 hrs in absence of compound
Streptococcus pyogenes [15] = assay: Bactericidal activity against Streptococcus pyogenes 12-207 expressing mef incubated for 20 to 24 hrs followed by sub-culturing for 24 hrs in absence of compound
Haemophilus influenzae [16] = assay: Bacteriostatic activity against azithromycin-susceptible Haemophilus influenzae ATCC 49247 after 20 to 24 hrs by two-fold microbroth dilution method
Streptococcus pneumoniae [17] = assay: Bacteriostatic activity against penicillin-susceptible Streptococcus pneumoniae PU09 after 20 to 24 hrs by two-fold microbroth dilution method
Streptococcus pyogenes [18] = assay: Bacteriostatic activity against Streptococcus pyogenes 12-207 expressing mef after 20 to 24 hrs by two-fold microbroth dilution method
Staphylococcus aureus [19] = assay: Ratio of MBC to MIC against methicillin-resistant Staphylococcus aureus PU32 expressing inducible ermA
Staphylococcus aureus [20] = assay: Bactericidal activity against methicillin-resistant Staphylococcus aureus PU20 expressing constitutive ermC incubated for 20 hrs followed by sub-culturing for 24 hrs in absence of compound
Streptococcus pneumoniae [21] = assay: Ratio of MBC to MIC for penicillin-susceptible Streptococcus pneumoniae PU09
Staphylococcus aureus [22] = assay: Bactericidal activity against methicillin-resistant Staphylococcus aureus PU32 expressing inducible ermA incubated for 20 hrs followed by sub-culturing for 24 hrs in absence of compound
Moraxella catarrhalis [23] = assay: Bacteriostatic activity against erythromycin-susceptible Moraxella catarrhalis 11B366 after 20 hrs by two-fold microbroth dilution method; details: 11B366, 20 h
Streptococcus pyogenes [24] = assay: Bactericidal activity against Streptococcus pyogenes 01-968 expressing inducible ermA incubated for 20 to 24 hrs followed by sub-culturing for 24 hrs in absence of compound
Moraxella catarrhalis [25] = assay: Ratio of MBC to MIC against erythromycin-susceptible Moraxella catarrhalis 13L332
Haemophilus influenzae [26] = assay: Ratio of MBC to MIC against azithromycin-susceptible Haemophilus influenzae ATCC 49247
Moraxella catarrhalis [27] = assay: Bactericidal activity against erythromycin-susceptible Moraxella catarrhalis 13L332 incubated for 20 hrs followed by sub-culturing for 24 hrs in absence of compound
Streptococcus pyogenes [28] = assay: Bacteriostatic activity against Streptococcus pyogenes 01-968 expressing inducible ermA after 20 to 24 hrs by two-fold microbroth dilution method
Haemophilus influenzae [29] = assay: Bactericidal activity against azithromycin susceptible/ampicillin-resistant Haemophilus influenzae 11P307 incubated for 20 to 24 hrs followed by sub-culturing for 24 hrs in absence of compound
Staphylococcus aureus [30] = assay: Ratio of MBC to MIC for methicillin-resistant Staphylococcus aureus PU20 expressing constitutive ermC

SMILES	Ratio (Streptococcus pyogenes [1])	MBC (Moraxella catarrhalis [2]) [µg/mL]	Ratio (Haemophilus influenzae [3])	MIC (Staphylococcus aureus [4]) [µg/mL]	Ratio (Moraxella catarrhalis [5])	MIC (Streptococcus pneumoniae [6]) [µg/mL]	Ratio (Streptococcus pyogenes [7])	MBC (Streptococcus pneumoniae [8]) [µg/mL]	MIC (Haemophilus influenzae [9]) [µg/mL]	Ratio (Streptococcus pneumoniae [10])	MIC (Staphylococcus aureus [11]) [µg/mL]	MBC (Haemophilus influenzae [13]) [µg/mL]	MBC (Streptococcus pneumoniae [14]) [µg/mL]	MBC (Streptococcus pyogenes [15]) [µg/mL]	MIC (Haemophilus influenzae [16]) [µg/mL]	MIC (Streptococcus pneumoniae [17]) [µg/mL]	MIC (Streptococcus pyogenes [18]) [µg/mL]	Ratio (Staphylococcus aureus [19])	MBC (Staphylococcus aureus [20]) [µg/mL]	Ratio (Streptococcus pneumoniae [21])	further results
CC[C@H]1OC(=O)[C@H](C)C(=O)[C@H](C)[C@@H](O[C@@H]2O[C@H](C)C[C@H](N(C)C)[C@H]2O)[C@](C)(OC)C[C@@H](C)C(=O)[C@H](C)[C@H]2N(CCCCn3cnc(-c4cccnc4)c3)C(=O)O[C@]12C [TELITHROMYCIN]	2	0.25 (≈ 0.308 µM)	1 - 4	> 256	1	0.016 to 0.031 (≈ 0.0197 to 0.0382 µM)	2 - 8	0.031 (≈ 0.0382 µM)	1 to 4 (≈ 1.23 to 4.93 µM)	1 - 2	0.125 to 0.25 (≈ 0.154 to 0.308 µM)	8 (≈ 9.85 µM)	0.5 to 1 (≈ 0.616 to 1.23 µM)	1 (≈ 1.23 µM)	8 (≈ 9.85 µM)	0.25 (≈ 0.308 µM)	0.5 (≈ 0.616 µM)	>8	> 256	2 - 4	MIC (Moraxella catarrhalis [12]): 0.125 µg/mL (≈ 0.154 µM); MBC (Staphylococcus aureus [22]): 1 to 2 µg/mL (≈ 1.23 to 2.46 µM); MIC (Moraxella catarrhalis [23]): 0.25 µg/mL (≈ 0.308 µM); MBC (Streptococcus pyogenes [24]): 0.125 to 0.5 µg/mL (≈ 0.154 to 0.616 µM); Ratio (Moraxella catarrhalis [25]): 4; Ratio (Haemophilus influenzae [26]): 1; MBC (Moraxella catarrhalis [27]): 0.5 µg/mL (≈ 0.616 µM); MIC (Streptococcus pyogenes [28]): 0.062 µg/mL (≈ 0.0764 µM); MBC (Haemophilus influenzae [29]): 4 µg/mL (≈ 4.93 µM)
CC[C@H]1OC(=O)[C@H](C)C(=O)[C@H](C)[C@@H](O[C@@H]2O[C@H](C)C[C@H](N(C)C)[C@H]2O)[C@](C)(OC)C[C@@H](C)/C(=N\OC/C=C/c2cnc3ccccc3c2)[C@H](C)[C@H]2OC(=O)O[C@@]21C	>8	2 (≈ 2.51 µM)	>=4 - 8	32 (≈ 40.2 µM)	1	≤ 0.008	>8	0.031 (≈ 0.0389 µM)	8 to 32 (≈ 10.1 to 40.2 µM)	>=4	1 (≈ 1.26 µM)	> 256	0.5 (≈ 0.628 µM)	> 0.125	64 (≈ 80.4 µM)	0.25 (≈ 0.314 µM)	0.016 (≈ 0.0201 µM)	>8	32 (≈ 40.2 µM)	2	MBC (Staphylococcus aureus [22]): > 8 µg/mL; MIC (Moraxella catarrhalis [23]): 2 µg/mL (≈ 2.51 µM); Ratio (Staphylococcus aureus [30]): 1; MBC (Streptococcus pyogenes [24]): > 0.5 µg/mL; Ratio (Haemophilus influenzae [26]): >4; MIC (Streptococcus pyogenes [28]): 0.062 µg/mL (≈ 0.0779 µM); MBC (Haemophilus influenzae [29]): 64 to 128 µg/mL (≈ 80.4 to 161 µM)
